Counter-ions that a name gives are not always drawn. Like-named read-outs stand apart in the source and are kept apart here.
Experiments:
Keap1 Kelch domain = Keap1 Kelch domain (Homo sapiens, UniProt Q14145); assay: Surface plasmon resonance (SPR), immobilized Keap1 Kelch
Description: Surface Plasmon Resonance
SPR measurements were performed at 25 °C using a Pioneer FE FE instrument (Sartorius), as described
previosuly.[1, 3-4] The Keap1 Kelch domain was covalently immobilized on the biosensor chip surface by
amine coupling to a level of 2150 RU, using a 10 mM NaOAc pH 5 immobilization buffer. The 1×HBSTET
buffer (10 mM Hepes, 150 mM NaCl, 0.005% Tween20, 3 mM EDTA, 1 mM TCEP, pH = 7.4)
supplemented with 4% DMSO was used as running buffer for the experiments. Microcalibration was
performed for all SPR experiments to adjust for DMSO bulk effects (low limit of 3% and a high limit of
5%). The compound was injected in a concentration series of twofold serial dilutions (67.5–1000 µM)
using standard injections at a 30 μL/min flow rate. The data were analyzed using Qdat Data Analysis
Tool version 2.6.3.0 (Sartorius). The sensorgrams were corrected for buffer effects and unspecific
binding to the chip matrix by subtraction of blank and reference surfaces (a blank flow cell channel
activated by the injection of EDC/NHS and inactivated by the injection of ethanolamine). The
dissociation constant (Kd) was estimated by plotting MW normalized response levels (RUnorm) at equilibrium (Req) against the injected concentration and curve-fitted to a Langmuir (1:1) binding

human Keap1 Kelch = human Keap1 Kelch (Homo sapiens, UniProt Q14145); assay: Fluorescence polarization (FP) competition assay with Cy5-Nrf2 peptide probe
Description: Fluorescence Polarization Assay
(3 nM) and human Keap1 Kelch at 14 nM in the 1×HBSTET assay buffer, as previously.[1, 3-5] In short, the assay was performed in black flat-bottom 384-well plates (Corning Life Sciences, NY) allowing an assay volume of 30 μL/well. Proper mixing and elimination of air bubbles was ascertained by spinning down the plates and incubation for 10–15 minutes at RT before measuring FP levels on a Safire2 plate-reader (Tecan, Männedorf, Switzerland). The Ki values of the compounds were determined by dose-response experiments (12-points, 4% DMSO in all wells), where FP values were fitted to the equation Y = Bottom + (Top - Bottom)/[1 + (10HillSlope*(LogIC50-X))]; X representing the logarithmic value of compound concentration. The resulting IC50 value, together with the Kd value (the dissociation constant between probe and Keap1 Kelch, determined in a prior experiment) and Keap1 Kelch concentrations, was used to calculate the theoretical competitive inhibition constant, the Ki value.[18]

[1] = test system: Nrf2 KO THP1 cells differentiated into macrophages; assay: RNA sequencing transcriptome analysis, Nrf2 KO THP-1 macrophages; type: cell-based; settings: 12 h, CDDO-Me 0.1 µM, DMF, 24, 28 10 µM, KI-696 1 µM
THP1 cells = type: cell-based; settings: THP-1 WT, 100 µM, 48 h; stated as contrast to 24/28, which did not reduce viability
Description: THP1 cells were exposed to the compounds for 48 hours at 10 and 100 μM. Viability was quantified using
propidium iodide exclusion through flow cytometry. PI-positive cells (dead or necrotic cells) were quantified
through red fluorescence on a BD C6 Accuri flow cytometer using a 488 nm excitation wavelength and an
emission filter of 585 nm ± 40 nm (BD Biosciences). 50,000 events were collected (n = 3 technical replicates
per condition). The experiment was repeated twice. Data are presented as mean ± SEM (n = 4‒10).

[2] = test system: differentiated THP1 macrophages (WT)
[3] = WT, 12 h, CDDO-Me 0.1 µM, SFN, DMF, 24, 28 10 µM, KI-696 1 µM
[4] = WT, 12 h, CDDO-Me 0.1 µM, SFN, DMF, 24, 28 10 µM, KI-696 1 µM, NS = not significant

Keap1 Kelch domain, sequence (Q14145 321-609 limits assumed): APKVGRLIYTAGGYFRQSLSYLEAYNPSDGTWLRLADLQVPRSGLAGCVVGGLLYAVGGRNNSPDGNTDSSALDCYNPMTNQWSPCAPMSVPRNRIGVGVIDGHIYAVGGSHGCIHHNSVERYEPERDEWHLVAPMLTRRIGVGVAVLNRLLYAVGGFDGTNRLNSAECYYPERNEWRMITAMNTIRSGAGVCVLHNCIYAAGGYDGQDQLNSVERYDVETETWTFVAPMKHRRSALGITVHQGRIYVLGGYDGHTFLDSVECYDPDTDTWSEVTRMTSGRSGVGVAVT
human Keap1 Kelch, sequence (Q14145 321-609): as the sequence (Q14145 321-609 limits assumed) above

Structure (SMILES)	AKR1B10 FC ([2]; Table S3, THP-1, 12 h)	CASP1 FC ([2]; Table S3, THP-1, 12 h)	COL1A1 FC ([2]; Table S3, THP-1, 12 h)	COL4A1 FC ([2]; Table S3, THP-1, 12 h)	COL4A2 FC ([2]; Table S3, THP-1, 12 h)	GPX1 FC ([2]; Table S3, THP-1, 12 h)	GPX4 FC ([2]; Table S3, THP-1, 12 h)	IFNAR1 FC ([2]; Table S3, THP-1, 12 h)	IFNAR2 FC ([2]; Table S3, THP-1, 12 h)	IFNGR1 FC ([2]; Table S3, THP-1, 12 h)	IFNGR2 FC ([2]; Table S3, THP-1, 12 h)	IL1B FC ([2]; Table S3, THP-1, 12 h)	IRF3 FC ([2]; Table S3, THP-1, 12 h)	LAMB1 FC ([2]; Table S3, THP-1, 12 h)	LAMB4 FC ([2]; Table S3, THP-1, 12 h)	MMP8 FC ([2]; Table S3, THP-1, 12 h)	MMP9 FC ([2]; Table S3, THP-1, 12 h)	MMP12 FC ([2]; Table S3, THP-1, 12 h)	NLRP3 FC ([2]; Table S3, THP-1, 12 h)	NOD2 FC ([2]; Table S3, THP-1, 12 h)	other results
O=C(COc1ccccc1)NC1CCCCC1 [Compound 1]	–	–	–	–	–	–	–	–	–	–	–	–	–	–	–	–	–	–	–	–	Kd (Keap1 Kelch domain; KD (SPR, printed in Figure 1b), Rmax fixed to theoretical maximum (15 RU)): 686 ± 7 µM; Kd (Keap1 Kelch domain; Kd (SPR), estimated with Rmax fixed to theoretical maximum): ~700 µM; ligand efficiency (LE) (Keap1 Kelch domain; from SPR Kd): 0.25; activity in FP competition assay (human Keap1 Kelch): inactive
COC(=O)/C=C/C(=O)OC [DMF, dimethyl fumarate]	1,00 fold	0,18 fold	0,44 fold	1,46 fold	1,16 fold	0,59 fold	1,09 fold	0,95 fold	0,80 fold	0,93 fold	0,78 fold	2,70 fold	1,15 fold	4,44 fold	7,56 fold	1,70 fold	0,85 fold	1,88 fold	1,19 fold	0,31 fold	number of up- or downregulated genes in Nrf2 KO cells [1]: 3709 genes; cell viability (THP1 cells): contrasted; NOXA1 FC ([2]; Table S3, THP-1, 12 h): 0,30 fold; SOCS1 FC ([2]; Table S3, THP-1, 12 h): 5,21 fold; SOCS3 FC ([2]; Table S3, THP-1, 12 h): 18,01 fold; SOD1 FC ([2]; Table S3, THP-1, 12 h): 1,73 fold; SOD2 FC ([2]; Table S3, THP-1, 12 h): 0,19 fold; STAT1 FC ([2]; Table S3, THP-1, 12 h): 0,62 fold; TBK1 FC ([2]; Table S3, THP-1, 12 h): 1,19 fold; TLR4 FC ([2]; Table S3, THP-1, 12 h): 0,84 fold; TNFRSF1B FC ([2]; Table S3, THP-1, 12 h): 1,26 fold; TRAP1 FC ([2]; Table S3, THP-1, 12 h): 0,85 fold; cGAS FC ([2]; Table S3, THP-1, 12 h): 1,04 fold; number of upregulated genes not shared by the other groups ([2]; WT, 12 h, CDDO-Me 0.1 µM, DMF 10 µM): > 500 genes; Average FC of upregulated Nrf2-dependent genes [2, 3]: 4.2 fold; number of upregulated genes (FC >2.0, p-adj <0.05) [2, 3]: 845 genes
COc1cc([C@@H](CC(=O)O)c2ccc(C)c(CN3C[C@@H](C)Oc4ccccc4S3(=O)=O)c2)cc2nnn(C)c12 [KI-696]	26,39 fold	0,94 fold	1,59 fold	0,61 fold	0,77 fold	1,38 fold	1,74 fold	0,90 fold	1,02 fold	0,70 fold	0,91 fold	0,85 fold	1,43 fold	2,64 fold	3,38 fold	0,82 fold	1,21 fold	0,60 fold	0,78 fold	0,57 fold	number of up- or downregulated genes in Nrf2 KO cells [1]: none; CYP1B1 FC ([2]; Table S3, THP-1, 12 h): 0,76 fold; NOXA1 FC ([2]; Table S3, THP-1, 12 h): 0,92 fold; SOCS1 FC ([2]; Table S3, THP-1, 12 h): 2,43 fold; SOCS3 FC ([2]; Table S3, THP-1, 12 h): 1,66 fold; SOD1 FC ([2]; Table S3, THP-1, 12 h): 1,75 fold; SOD2 FC ([2]; Table S3, THP-1, 12 h): 0,87 fold; STAT1 FC ([2]; Table S3, THP-1, 12 h): 0,69 fold; TBK1 FC ([2]; Table S3, THP-1, 12 h): 1,56 fold; TLR4 FC ([2]; Table S3, THP-1, 12 h): 0,32 fold; TNFRSF1B FC ([2]; Table S3, THP-1, 12 h): 1,13 fold; TRAP1 FC ([2]; Table S3, THP-1, 12 h): 1,02 fold; cGAS FC ([2]; Table S3, THP-1, 12 h): 1,08 fold; Average FC of upregulated Nrf2-dependent genes [2, 3]: 2.4 fold; number of upregulated genes (FC >2.0, p-adj <0.05) [2, 3]: 88 genes; GCLM fold change vs vehicle [2, 4]: 2.5 fold; GSR fold change vs vehicle [2, 4]: 2.4 fold; HMOX1 fold change vs vehicle [2, 4]: 2.6 fold; NQO1 fold change vs vehicle [2, 4]: 2.3 fold; TXNRD1 fold change vs vehicle [2, 4]: 2.3 fold
C[S+]([O-])CCCCN=C=S (centres unmarked) [SFN, sulforaphane]	34,78 fold	0,45 fold	0,98 fold	0,55 fold	1,38 fold	0,53 fold	0,94 fold	0,88 fold	0,85 fold	0,63 fold	0,58 fold	0,36 fold	1,48 fold	7,81 fold	17,37 fold	0,32 fold	0,70 fold	0,29 fold	0,44 fold	0,16 fold	cell viability (THP1 cells): contrasted; CYP1B1 FC [2]: 1,15 fold; NOXA1 FC ([2]; Table S3, THP-1, 12 h): 0,45 fold; SOCS1 FC ([2]; Table S3, THP-1, 12 h): 2,19 fold; SOCS3 FC ([2]; Table S3, THP-1, 12 h): 0,99 fold; SOD1 FC ([2]; Table S3, THP-1, 12 h): 2,16 fold; SOD2 FC ([2]; Table S3, THP-1, 12 h): 0,40 fold; STAT1 FC ([2]; Table S3, THP-1, 12 h): 0,66 fold; TBK1 FC ([2]; Table S3, THP-1, 12 h): 0,95 fold; TLR4 FC ([2]; Table S3, THP-1, 12 h): 0,43 fold; TNFRSF1B FC ([2]; Table S3, THP-1, 12 h): 1,19 fold; TRAP1 FC ([2]; Table S3, THP-1, 12 h): 0,74 fold; cGAS FC ([2]; Table S3, THP-1, 12 h): 1,42 fold; Average FC of upregulated Nrf2-dependent genes [2, 3]: 4.1 fold; number of upregulated genes (FC >2.0, p-adj <0.05) [2, 3]: 676 genes; GCLM fold change vs vehicle [2, 4]: 4.7 fold; GSR fold change vs vehicle [2, 4]: 3.4 fold; SRXN1 fold change vs vehicle [2, 4]: 4.5 fold; TXNRD1 fold change vs vehicle [2, 4]: 3.9 fold

Reference: publication PMC12455397 (Angewandte Chemie (International Ed. in English), 2025)
